This is an account of results in patent publication US5952368A, “5-aroylpyrrol-2-ylmethylarene derivatives” (Syntex (U.S.A.) Inc., priority 1997, dated 1999).

One assay has as its system air pouch PGE2 formation. Kind of assay: Inhibition of eicosanoid (PGE2) synthesis in vivo: carrageenan air-pouch model in rats. Details: species or system rat. As to conditions: oral, male rats. The method, then: In this assay, an air-pouch is created in the rat and the PGE2 levels in the air-pouch exudate are measured by enzyme immunoassay. Briefly, male rats were anesthetized using a 60:40 CO2 :O2 mixture and subsequently injected subcutaneously with 20 ml of sterilized air, under aseptic conditions, in the proximal area of the dorsum. This injection of sterile air causes the creation of a subcutaneous "air pouch". The next day, a further 10 ml of sterile air was injected into the previously formed pouch using the same technique. […] Control rats received vehicle alone. After 30 minutes, 5 ml of a 0.5% solution of carrageenan (Sigma, Lambda Type IV) was injected into the air pouch. The rats were euthanized 3 or 6 h after the compound administration. […] The total exudate volume was recorded, and the samples were analyzed for PGE2 and 6-keto PGF1 by ELISA (Titerzyme®, PerSeptive Diagnostics) and TxB2 by radioimmuno assay (New England Nuclear Research, Catalog No. NEK-037), according to the manufacturer's directions.
The mean concentrations of PGE2 were calculated for each group. The anti-inflammatory activity of test materials is expressed as the percent inhibition of PGE2 formation in the test group relative to the control group.

In assay [1] the test system is cognitive decline of Alzheimer's patients. As to conditions: cited from earlier work.
Assay [2] relates to carrageenan-induced paw edema. Kind of assay: Anti-inflammatory activity: inhibition of carrageenan-induced paw edema in the rat. Format: in vivo. The settings on record: 10 mg/Kg, oral, female rats, 3 h after carrageenan. The method, then:
The anti-inflammatory activity of compounds of this invention was determined by measuring the inhibition of carrageenan-induced paw edema in the rat, using a modification of the method described in Winter C. A. et al. (1962) "Carrageenan-Induced Edema in Hind Paw of the Rat as an Assay for Anti-inflammatory Drugs". Proc. Soc. Exp. Biol. Med. 111: 544-547. This assay has been used as a primary in vivo screen for anti-inflammatoryactivity of most NSAIDs, and is considered predictive of human efficacy. Briefly, test materials were administered orally to female rats in a volume of 1 ml prepared as solutions or suspensions in an aqueous vehicle containing 0.9% NaCl, 0.5% sodium carboxymethyl-cellulose, 0.4% polysorbate 80, 0.9% benzyl alcohol and 97.3% distilled water. Control rats received vehicle alone. After 1 h 0.05 ml of a 0.5% solution of Carrageenan (Type IV Lambda, Sigma Chemical Co.) in 0.9% saline was injected into the subplantar region of the right hind paw. Three hours later the rats were euthanized in a carbon dioxide atmosphere; hind paws were removed by severing at the tatso-crural joint; and the left and right paws were weighed. The increase in weight of the right paw over the left paw was obtained for each animal and the mean increases were calculated for each group. The anti-inflammatory activity of the test materials is expressed as the percent inhibition of the increase in hind paw weight of the test group relative to the vehicle-dosed control group.
(The carrageenan paw model is a standard test of acute inflammation.)

A further assay concerns the target T1, COX I (Homo sapiens, UniProt P23219).
T1 construct: made in house; baculovirus-infected insect cells by own knowledge of the cited Barnett et al. 1994
Kind of assay: Inhibition of COX I in vitro (radiometric assay, 14C arachidonic acid, partially purified enzyme). Format: biochemical. The settings on record: partially purified COX I, 20 micromolar arachidonic acid, 10 min preincubation, room temperature; read-out: COX I IC50.

The next assay deals with T2, COX II (Homo sapiens, UniProt P35354).
T2 construct: made in house; baculovirus-infected insect cells by own knowledge of the cited Barnett et al. 1994
T2 sequence (P35354 18-604): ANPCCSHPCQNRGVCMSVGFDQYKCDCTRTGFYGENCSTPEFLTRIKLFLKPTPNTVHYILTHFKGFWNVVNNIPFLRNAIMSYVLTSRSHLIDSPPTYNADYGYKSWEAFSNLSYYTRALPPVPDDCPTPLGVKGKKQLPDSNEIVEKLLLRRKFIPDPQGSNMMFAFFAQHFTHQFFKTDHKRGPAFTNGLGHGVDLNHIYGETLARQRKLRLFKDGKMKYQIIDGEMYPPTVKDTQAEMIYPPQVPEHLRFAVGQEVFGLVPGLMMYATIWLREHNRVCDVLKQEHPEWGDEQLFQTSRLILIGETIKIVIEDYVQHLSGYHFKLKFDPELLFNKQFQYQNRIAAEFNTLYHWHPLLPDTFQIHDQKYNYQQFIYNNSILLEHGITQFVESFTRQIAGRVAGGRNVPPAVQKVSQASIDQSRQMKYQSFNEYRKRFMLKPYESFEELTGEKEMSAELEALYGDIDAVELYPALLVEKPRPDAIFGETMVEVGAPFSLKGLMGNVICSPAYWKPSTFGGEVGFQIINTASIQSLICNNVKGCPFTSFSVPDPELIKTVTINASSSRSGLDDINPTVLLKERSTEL
Kind of assay: Inhibition of COX II in vitro (radiometric assay, 14C arachidonic acid, partially purified enzyme). The settings on record: partially purified COX II, 20 micromolar arachidonic acid, 10 min preincubation, room temperature; read-out: COX II IC50. Format: biochemical.

In assay [3] the test system is acetic acid-induced writhing. Kind of assay: Analgesic activity: Acetic Acid-induced Rat Writhing Assay. Format: in vivo. As to conditions: 10 mg/Kg, oral, male Sprague Dawley rats. An excerpt:
The analgesic activity of compounds of this invention may be determined by the Acetic Acid-induced Rat Writhing Assay, using a modification of the method described in Berkenkopf, J. W. and Weichman, B. M. "Production of Prostacyclin in Mice following Intraperitoneal Injection of Acetic Acid, Phenylbenzoquinone and Zymosan: Its Role in the Writhing Response" Prostaglandins: 36: 693-70 (1988). This assay is one of several acute assays which have been used to assess the analgesic activity of NSAIDs, and is considered predictive of human efficacy. The test materials were administered orally to male Sprague Dawley rats in a volume of 1 ml/100 g body weight as solutions or suspensions in an aqueous vehicle containing 0.9% NaCl 0.5% sodium carboxymethyl-cellulose, 0.4% polysorbate 80, 0.9% benzyl alcohol and 97.3% water. Control rats received vehicle alone. One hour after compound administration, 0.3 ml/100 g body weight of 0.75% solution of acetic acid was injected intraperitoneally. The acetic acid injection induces a series of characteristic writhing responses, which were counted over the period between 15 and 30 minutes after the injection. The analgesic activity of test materials is expressed as the percentage inhibition of writhing in the test group relative to the control group.
(An intraperitoneal irritant provokes the stretching counted in writhing tests.)

T1 sequence (P23219 24-599): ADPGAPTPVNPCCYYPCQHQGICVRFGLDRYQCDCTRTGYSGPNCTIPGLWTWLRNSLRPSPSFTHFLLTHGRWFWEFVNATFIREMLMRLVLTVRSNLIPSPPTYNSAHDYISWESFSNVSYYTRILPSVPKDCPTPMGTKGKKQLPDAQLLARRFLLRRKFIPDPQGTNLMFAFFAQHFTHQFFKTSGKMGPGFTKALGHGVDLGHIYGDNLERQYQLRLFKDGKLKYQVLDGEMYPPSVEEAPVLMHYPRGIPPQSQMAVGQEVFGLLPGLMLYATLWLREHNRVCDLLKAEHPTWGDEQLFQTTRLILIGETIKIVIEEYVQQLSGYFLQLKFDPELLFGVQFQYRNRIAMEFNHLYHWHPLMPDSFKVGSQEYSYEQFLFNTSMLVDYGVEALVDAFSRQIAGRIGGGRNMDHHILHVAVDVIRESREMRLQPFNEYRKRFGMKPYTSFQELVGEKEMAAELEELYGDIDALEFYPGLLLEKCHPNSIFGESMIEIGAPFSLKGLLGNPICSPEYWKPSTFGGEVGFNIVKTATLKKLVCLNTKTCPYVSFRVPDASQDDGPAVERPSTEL

Consider `COc1ccc2c(c1)c(CC(=O)O)c(C)n2C(=O)c1ccc(Cl)cc1` [Indomethacin, indomethacin, reference compound], for which the “% Inhibition of air pouch PGE2 formation” value in the assay with air pouch PGE2 formation (2-5 mg/Kg, time not given) is above 70%. In addition, the “effect on cognitive decline of Alzheimer's patients (in words)” value in assay [1] is listed as “inhibit the cognitive decline of Alzheimer's patients”.
One may read the IC50 as the concentration needed to halve the response being measured. In the case of `Cc1ccc(C(=O)c2ccc(Cc3ccc(NS(=O)(=O)CCO)cc3F)n2C)cc1` [compound 36, N-{3-Fluoro-4-[5-(4-methylbenzoyl)-1-methyl-1H-pyrrol-2-ylmethyl]phenyl}-2-(hydroxy)ethanesulfonamide], the “% Inhibition of air pouch PGE2 formation” value with air pouch PGE2 formation (10 mg/Kg, 3 hr) is listed as 96%. Besides, the “% Inhibition (of the increase in hind paw weight)” value in assay [2] amounted to 31%. In addition, the IC50 was 10000 nM at COX I and 50 nM at COX II. Also, in assay [3], the “% Inhibition of writhing responses” value was found to be 16%.
Take `COc1ccc(C(=O)c2c(C)cc(Cc3ccc(NS(=O)(=O)CCO)cc3F)n2C)cc1` [compound 98, N-{3-Fluoro-4-[5-(4-methoxybenzoyl)-1,4-dimethyl-1H-pyrrol-2-ylmethyl]phenyl}-2-(hydroxy)ethanesulfonamide]: the “% Inhibition of air pouch PGE2 formation” value in the assay with air pouch PGE2 formation (10 mg/Kg, 3 hr) is listed as 98%. The “% Inhibition (of the increase in hind paw weight)” value in assay [2] stood at 42%. For the same compound, the figures for the IC50 at COX I and on COX II were below 100 nM and 230 nM, respectively. Besides, in assay [3], the “% Inhibition of writhing responses” value was 71%.
Turning to `Cc1cc(Cc2ccc(NS(=O)(=O)N(C)C)cc2)n(C)c1C(=O)c1ccc(Cl)cc1` [compound 140, 1-{4-[5-(4-Chlorobenzoyl)-1,4-dimethyl-1H-pyrrol-2-ylmethyl]phenyl}-3,3-di-methylsulfamide], the “% Inhibition of air pouch PGE2 formation” value in the assay with air pouch PGE2 formation (30 mg/Kg, 6 hr) came to 83%. Also, the “% Inhibition (of the increase in hind paw weight)” value in assay [2] worked out at 27%. Also, the IC50 at COX I is 5400 nM; on COX II, 120 nM. Also, in assay [3], the “% Inhibition of writhing responses” value was 4%.
For `Cc1cc(Cc2ccc(NS(C)(=O)=O)cn2)n(C)c1C(=O)c1ccc(Cl)cc1` [compound 263, N-{2-[5-(4-Chlorobenzoyl)-1,4-dimethyl-1H-pyrrol-2-ylmethyl]pyridin-5-yl}-methanesulfonamide] the same measures were 80%, 40%, 49000 nM, 450 nM and 31%.
